Assay results from patent US7741124B2, “Detection procedures for fibrinogen and/or fibrinogen derivatives” (priority 2003, dated 2010).
Where two headings read alike, the source gives them in different places. Each block holds one compound with its values, some of them ahead of it.

Columns and labels:
Type in all cases: biochemical
fibrinogen [1] = molecular target: T1, fibrinogen (Homo sapiens, UniProt P02671+P02675+P02679); assay: FIFTA of chloramine-T oxidized / EDTA-supplemented plasma
T1 construct: pooled patient plasma (P-Pool, n=32 single plasmas); from tissue; host or cells: pooled citrated patient plasma (P-Pool, Fbgen-Pool-Plasma)
T1 sequence (P02671 20-644 isoform P02671-2 limits assumed): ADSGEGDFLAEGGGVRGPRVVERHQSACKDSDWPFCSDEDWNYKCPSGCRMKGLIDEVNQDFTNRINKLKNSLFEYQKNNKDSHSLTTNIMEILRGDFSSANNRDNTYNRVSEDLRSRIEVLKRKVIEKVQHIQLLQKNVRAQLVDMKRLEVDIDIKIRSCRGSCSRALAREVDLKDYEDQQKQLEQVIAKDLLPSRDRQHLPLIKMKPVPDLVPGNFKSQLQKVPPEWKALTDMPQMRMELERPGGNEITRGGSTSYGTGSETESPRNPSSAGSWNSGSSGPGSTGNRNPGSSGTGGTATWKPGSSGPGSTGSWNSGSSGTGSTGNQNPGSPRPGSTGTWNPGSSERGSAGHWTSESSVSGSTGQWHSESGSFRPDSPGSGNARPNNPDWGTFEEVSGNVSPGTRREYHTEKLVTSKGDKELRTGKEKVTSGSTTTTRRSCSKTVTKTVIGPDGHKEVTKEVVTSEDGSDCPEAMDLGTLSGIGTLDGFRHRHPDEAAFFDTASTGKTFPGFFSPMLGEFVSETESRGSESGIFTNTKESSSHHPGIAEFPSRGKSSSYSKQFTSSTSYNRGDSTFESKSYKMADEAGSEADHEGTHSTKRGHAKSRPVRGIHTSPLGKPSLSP
T1 sequence (P02675 31-491): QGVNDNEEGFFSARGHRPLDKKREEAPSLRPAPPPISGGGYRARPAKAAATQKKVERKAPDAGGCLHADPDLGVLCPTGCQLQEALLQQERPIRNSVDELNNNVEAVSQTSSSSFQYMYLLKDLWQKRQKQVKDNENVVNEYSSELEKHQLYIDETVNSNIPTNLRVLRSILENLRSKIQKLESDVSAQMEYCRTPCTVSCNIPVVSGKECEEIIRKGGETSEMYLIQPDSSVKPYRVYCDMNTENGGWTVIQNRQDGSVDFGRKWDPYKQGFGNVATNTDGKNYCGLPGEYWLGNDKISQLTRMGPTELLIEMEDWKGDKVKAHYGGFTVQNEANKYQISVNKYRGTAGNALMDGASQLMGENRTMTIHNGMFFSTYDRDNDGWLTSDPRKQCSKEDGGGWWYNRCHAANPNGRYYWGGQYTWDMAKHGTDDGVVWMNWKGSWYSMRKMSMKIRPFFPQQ
T1 sequence (P02679 27-437 isoform P02679-2 limits assumed): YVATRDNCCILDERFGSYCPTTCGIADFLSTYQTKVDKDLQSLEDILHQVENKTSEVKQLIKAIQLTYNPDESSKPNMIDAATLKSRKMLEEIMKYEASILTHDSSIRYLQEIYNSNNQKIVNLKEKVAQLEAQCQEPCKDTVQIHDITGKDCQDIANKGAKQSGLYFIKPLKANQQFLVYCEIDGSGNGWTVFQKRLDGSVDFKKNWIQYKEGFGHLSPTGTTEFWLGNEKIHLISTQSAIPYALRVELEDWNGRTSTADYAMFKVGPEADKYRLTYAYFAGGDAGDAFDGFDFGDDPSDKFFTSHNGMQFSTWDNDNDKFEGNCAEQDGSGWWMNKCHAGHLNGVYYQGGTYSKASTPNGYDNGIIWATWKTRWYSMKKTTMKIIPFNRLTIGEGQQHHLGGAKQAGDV
Method: The absorption at 405 nm is immediately measured (base value) and exactly after 5 min, if the reaction is performed at room temperature (23° C.). If the reaction is performed at 37° C., the second value is measured after 2 min. A microtiterplate reader (Milenia, DPC, Los Angeles, USA) is used. The increase in absorption (ΔA) is determined and the results are standardized against a pooled plasma of known, preferably of 100% of norm, fibrinogen-activity (Table 1).
(§1) 25 μl P-Pool or P-Pool supplemented with 8.6 mM (3.2 g/l) EDTA were incubated with 25 μl 0-89 mM chloramine-T® in PBS for 60 min at RT. Then the FIATA and the FIFTA were performed. For the FIATA, 25 μl PBS were added and the absorbance at 405 nm was determined (base value). 50 μl 4.4 mM vancomycin in PBS were added and after 1 min (RT) the absorbance at 405 nm was determined again (Table 1). […] 100% control=P-Pool without oxidant.
(§2) 25 μl P-Pool was incubated with 25 μl PBS or with 25 μl 2 mM CT in PBS. After 60 min RT, 25 μl 0-172 mM EDTA in PBS was added. After 5 min RT the FIATA and the FIFTA were performed as indicated in 2.7.

fibrinogen [2] = assay: FIATA (vancomycin reactivity) of chloramine-T oxidized / EDTA-supplemented plasma; settings: EDTA at concentrations of 50-100 mM
Method: To 25 μl plasma 50 μl PBS are added and the absorbance (405 nm) is determined (base value). Then 50 μl 4.4 mM vancomycin in PBS are added. The absorbance at 405 nm is determined after 2 min, if the reaction is performed at room temperature (23° C.). If the reaction is performed at 37° C., the second value is determined after 1 min. A microtiterplate reader (Milenia, DPC, Los Angeles, USA) is used. The increase in absorption (ΔA) is determined and the results are standardized against a pooled plasma of known, preferably of 100% of norm, fibrinogen-concentration, and against 0.9% NaCl (zero-value of turbidity) (Table 2).
as §1, §2

heparin = assay: Neutralization of heparin in plasma by Polybrene in the FIFTA
Method: P-Pool supplemented with 0-80 IU/ml heparin was analyzed in the FIFTA. The FIFTA-reagent contained 200 mIU/ml thrombin, 6% BSA-PBS and 0, 50, 100, 200, 400, 800, or 1600 μg/ml Polybrene® (PB, hexadimethrinebromide).
25 μl 0-75 mg/ml Polybrene® in aqua dest. were added to 50 μl P-Pool or to 50 μl P-Pool, that had been supplemented with 100 IU/ml heparin. Then 100 μl 200 miU/ml thrombin in 6% BSA-PBS, 400 μg/ml PB were added and the increase in absorbance at 405 nm was determined.
50 μl P-Pool with 0-80 IU/ml heparin were incubated with 100 μl FIFTA-reagent without thrombin, that contained 0, 400, 800, or 1600 μg/ml PB. The increase in absorbance at 405 nm was determined.

fibrin = molecular target: T2, fibrin (Homo sapiens, UniProt P02671+P02675+P02679); assay: Fibrin dissolution by arginine
T2 construct: The FIFTA imitates the physiological conversion of fibrinogen to fibrin; from tissue; host or cells: pooled citrated patient plasma (P-Pool), clotted in the well with thrombin reagent for 30 min
T2 sequence (P02671 36-629 limits assumed): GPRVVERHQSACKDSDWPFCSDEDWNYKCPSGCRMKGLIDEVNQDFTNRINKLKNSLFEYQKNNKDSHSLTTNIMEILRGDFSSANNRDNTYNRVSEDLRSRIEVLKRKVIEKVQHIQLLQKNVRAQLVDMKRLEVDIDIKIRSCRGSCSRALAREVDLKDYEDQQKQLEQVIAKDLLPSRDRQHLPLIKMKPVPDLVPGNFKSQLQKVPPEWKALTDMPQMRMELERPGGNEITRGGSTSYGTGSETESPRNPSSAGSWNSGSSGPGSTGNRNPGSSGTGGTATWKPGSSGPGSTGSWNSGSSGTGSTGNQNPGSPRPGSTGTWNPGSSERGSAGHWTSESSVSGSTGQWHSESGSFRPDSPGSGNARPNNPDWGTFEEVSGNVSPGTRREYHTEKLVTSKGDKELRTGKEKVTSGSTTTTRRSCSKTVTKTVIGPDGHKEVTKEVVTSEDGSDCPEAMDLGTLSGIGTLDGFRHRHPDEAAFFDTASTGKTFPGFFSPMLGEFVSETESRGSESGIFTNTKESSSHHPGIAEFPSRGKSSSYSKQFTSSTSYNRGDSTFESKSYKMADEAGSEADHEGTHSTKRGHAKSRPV
T2 sequence (P02675 45-491 limits assumed): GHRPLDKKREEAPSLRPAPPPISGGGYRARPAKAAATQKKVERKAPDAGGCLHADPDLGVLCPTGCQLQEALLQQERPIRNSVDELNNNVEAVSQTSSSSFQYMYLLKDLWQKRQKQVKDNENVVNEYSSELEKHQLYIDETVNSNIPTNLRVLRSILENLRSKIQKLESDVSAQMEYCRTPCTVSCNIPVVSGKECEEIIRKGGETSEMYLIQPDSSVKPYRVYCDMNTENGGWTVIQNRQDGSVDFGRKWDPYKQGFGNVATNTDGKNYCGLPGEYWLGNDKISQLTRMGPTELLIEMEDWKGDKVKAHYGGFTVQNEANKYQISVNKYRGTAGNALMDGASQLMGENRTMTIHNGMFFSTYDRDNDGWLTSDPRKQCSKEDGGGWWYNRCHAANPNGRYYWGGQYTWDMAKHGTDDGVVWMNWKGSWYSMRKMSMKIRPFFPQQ
T2 sequence (P02679 27-437 isoform P02679-2 limits assumed): T1 sequence (P02679 27-437 isoform P02679-2 limits assumed)
Method: 50 μl P-Pool were incubated with 100 μl FIFTA-reagent.

[3] = test system: thrombin/fibrinogen interaction; assay: Inhibition of fibrin generation by arginine (FIFTA turbidity); settings: for IC50: read-out: arginine conc. at halfmaximal turbidity increase
Method: The turbidity increase was calculated by subtracting the basal absorbance from the absorbance generated by thrombin (addition of 100 μl FIFTA-reagent without thrombin results into an approximate increase of absorbance of 100 mA compared to the absorbance of 50 μl sample). c) 50 μl P-Pool were incubated with 100 μl FIFTA-reagent.

thrombin = molecular target: T3, thrombin (Bos taurus, UniProt P00735); assay: Inhibitory time point 50% (ITP50) of 10 IU/ml heparin-thrombin interaction; settings: 133 mIU/ml thrombin, RT
T3 construct: 100 μl 200 mIU/ml thrombin in 6% BSA-PBS (without Polybrene®)
Method: 50 μl P-Pool were incubated with 100 μl 200 miU/ml thrombin in 6% BSA-PBS (without Polybrene®). At 0 min (prior to thrombin addition) and 0.5-11 min reaction time (at RT) 10 μl 160 IU/ml heparin in 6% BSA-PBS was added (final heparin conc. in plasma+thrombin reagent=10 IU/ml; this heparin conc. increased the absorbance by 20 mA; all test results were corrected by this heparin induced turbidity increase). The turbidity increase at 405 nm was determined immediately after each heparin addition step and as a function of incubation time.
To determine the heparin addition time point (at RT) that is needed to decrease the 5 min, 10 min, 15 min or 20 min turbidity increase by 50% (inhibitory time point 50%=ITP), 50 μl P-Pool were incubated with 100 μl 200 mIU/ml thrombin in 6% BSA-PBS (without Polybrene®). After 0 s (prior to thrombin addition) and 10-140 s (in 10 s intervals) 10 μl 160 IU/ml heparin in 6% BSA-PBS were added. The turbidity increase at 405 nm as a function of incubation time (3-20 min) was determined.

decrease of FIFTA activity (fibrinogen [1]; EDTA at concentrations >5 mmol/l, 0 mM or 2 mM oxidized samples): about 50%
FIFTA decrease (fibrinogen [1]; addition of 8.6 mM EDTA, independent of oxidant concentration): about 50%
Compound: O=C(O)CN(CCN(CC(=O)O)CC(=O)O)CC(=O)O [EDTA]
decrease of FIATA result (fibrinogen [2]): 10-20%

Compound: hexadimethrinebromide [Polybrene®]
plasmatic heparin concentration neutralized (heparin; 400 μg/ml Polybrene in FIFTA-reagent): up to 20 IU/ml
PB needed for neutralization of 1 part of 100 IU/ml heparinized plasma (heparin; 1 part PB, includes 400 μg/ml PB of FIFTA-reagent): 26 mg/mL
PB concentration that completely antagonizes 100 IU/ml heparin (heparin; 25 μl PB added to 50 μl plasma): ≥ 50 mg/mL

Compound: N=C(N)NCCC[C@H](N)C(=O)O [arginine]
time to halfmaximal decrease of ΔA (fibrin; 477 mM arginine added at 12 min or 30 min reaction time point, RT): 30 min
maximal ΔA that remains refractory to clearing (fibrin; arginine incubation >100 min): about 30%
increase of the turbidity increase ([3]; 16 mM arginine): about 20%
final arginine conc. that completely inhibits turbidity increase ([3]; arginine acts in the first 4 min (RT) of thrombin/fibrinogen interaction): ≥ 250 mM
time window in which arginine can inhibit turbidity increase ([3]; final arginine conc. ≧250 mM, RT (FIG. 16d)): ≤ 3 min
IC50 ([3]; added at the 7 min reaction time point): 94 mM
IC50 ([3]; arginine acts since the begin of thrombin action): 62.5 mM

time in which about 50% of plasmatic fibrinogen is converted (thrombin): approximately 30 seconds
Compound: thrombin
